The values that follow are results of earlier work, collected in patent publication US20080031898A1, “Compositions and methods to increase the effect of a neurotoxin treatment” (priority 2004, published 2008).

Molecules are shown by their SMILES.

The test system of the series is BRAF(V600E) mutant xenografts. Conditions: Solit et al, Nature 2006.

As to `O=C(NOC[C@H](O)CO)c1ccc(F)c(F)c1Nc1ccc(I)cc1F` [PD0325901], the “suppression of xenograft growth” value is “completely suppresses the growth”.
